This is an account of results in patent publication US20200354426A1 (MEDIMMUNE LIMITED, priority 2016, published 2020).

pEC50: −log10 of the molar value. Read-outs that look alike come from different tables or passages of the source. Numbered stars: 1 amine (or outer) side, 2 acyl side, 3 side chain; on linkers, the order of the positions; unused ones are H or OH. Side chains are listed from the residue outwards. Peptide text beside a SMILES is read from it. * marks the point of attachment. γGlu = O=C(O)[C@H](CCC(=O)[*:2])N[*:1]; Palmitoyl = CCCCCCCCCCCCCCCC(=O)*; Ahx = NCCCCCC(=O)O

Holding throughout (assay): cAMP activity assay in assay medium (assay 1)
Format in all cases: cell-based
Common to all, as to conditions: Table 4

One assay deals with T1, Human GIPr (Homo sapiens, UniProt P48546).
T1 construct: expressed in transfected cells
T1 sequence (P48546 22-466): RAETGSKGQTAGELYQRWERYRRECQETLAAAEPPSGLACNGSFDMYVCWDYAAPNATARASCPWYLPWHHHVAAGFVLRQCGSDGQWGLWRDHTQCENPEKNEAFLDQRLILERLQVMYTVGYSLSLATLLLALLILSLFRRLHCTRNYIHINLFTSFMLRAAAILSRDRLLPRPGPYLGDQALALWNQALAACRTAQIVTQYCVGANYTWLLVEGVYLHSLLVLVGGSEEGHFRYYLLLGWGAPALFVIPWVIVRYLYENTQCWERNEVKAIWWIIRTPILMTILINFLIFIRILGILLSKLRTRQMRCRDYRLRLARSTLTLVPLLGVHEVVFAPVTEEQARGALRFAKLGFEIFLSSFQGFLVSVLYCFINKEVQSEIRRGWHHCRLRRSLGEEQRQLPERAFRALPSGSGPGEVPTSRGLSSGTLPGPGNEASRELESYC
From the text:
(§1) Biological Activity of Peptides in Cell-Based cAMP Activity Assay (Assay 1):
(§2) All sample dilutions were made in duplicate.

The next assay has as its target T2, Human GlucR (Homo sapiens, UniProt P47871).
T2 construct: expressed in transfected cells
Description: as §1, §2

Another assay addresses Human GLP1R (Homo sapiens, UniProt P43220). More on the design: expressed in transfected cells.
Description: as §1, §2

Setting [1] is: assay medium, read-out: hGIPR EC50.
[2] abbreviates: assay medium, read-out: hGlucR EC50.
Setting [3] is: assay medium, read-out: hGLP1R EC50.

T2 sequence (P47871 26-477): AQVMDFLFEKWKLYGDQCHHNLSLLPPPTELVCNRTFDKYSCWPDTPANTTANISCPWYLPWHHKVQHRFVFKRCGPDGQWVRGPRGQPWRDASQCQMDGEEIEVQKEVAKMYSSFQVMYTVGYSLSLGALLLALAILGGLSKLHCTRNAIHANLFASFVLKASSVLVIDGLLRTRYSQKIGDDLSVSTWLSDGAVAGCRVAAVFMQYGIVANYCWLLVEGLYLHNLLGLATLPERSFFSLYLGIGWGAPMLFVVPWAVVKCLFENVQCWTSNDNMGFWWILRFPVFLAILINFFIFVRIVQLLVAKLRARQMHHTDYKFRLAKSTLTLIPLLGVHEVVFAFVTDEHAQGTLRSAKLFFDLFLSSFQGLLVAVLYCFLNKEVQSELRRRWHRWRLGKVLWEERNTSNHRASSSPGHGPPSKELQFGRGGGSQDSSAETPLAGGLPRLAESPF
Human GLP1R, sequence (P43220 24-463): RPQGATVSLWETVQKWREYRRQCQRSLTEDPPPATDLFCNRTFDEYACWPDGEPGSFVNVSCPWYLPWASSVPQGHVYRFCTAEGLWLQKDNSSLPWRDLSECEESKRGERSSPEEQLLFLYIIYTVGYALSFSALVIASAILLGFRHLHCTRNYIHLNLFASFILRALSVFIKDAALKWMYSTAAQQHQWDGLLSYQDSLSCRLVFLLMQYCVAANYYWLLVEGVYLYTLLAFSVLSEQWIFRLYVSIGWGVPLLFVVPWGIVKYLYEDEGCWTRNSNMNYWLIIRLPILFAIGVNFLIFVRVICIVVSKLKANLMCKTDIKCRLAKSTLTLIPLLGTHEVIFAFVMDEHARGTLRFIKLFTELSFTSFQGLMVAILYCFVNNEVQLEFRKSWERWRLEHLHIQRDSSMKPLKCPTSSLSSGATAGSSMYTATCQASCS

On to `CCCCCCCCCCCCCCCC(=O)NCCCCCC(=O)NCCCC[C@H](NC(=O)[C@H](CO)NC(=O)[C@H](CC(=O)O)NC(=O)[C@H](CC(C)C)NC(=O)[C@H](Cc1ccc(O)cc1)NC(=O)[C@H](CCC(=O)O)NC(=O)[C@H](CO)NC(=O)[C@H](Cc1ccc(O)cc1)NC(=O)[C@H](CC(=O)O)NC(=O)[C@H](CO)NC(=O)[C@@H](NC(=O)[C@H](Cc1ccccc1)NC(=O)[C@@H](NC(=O)CNC(=O)[C@H](CCC(=O)O)NC(=O)CNC(=O)[C@@H](N)Cc1c[nH]cn1)[C@@H](C)O)[C@@H](C)O)C(=O)N[C@@H](CCCNC(=N)N)C(=O)N[C@@H](C)C(=O)N[C@@H](C)C(=O)N[C@@H](CC(=O)O)C(=O)N[C@@H](Cc1ccccc1)C(=O)N[C@H](C(=O)N[C@@H](C)C(=O)N[C@@H](Cc1c[nH]c2ccccc12)C(=O)N[C@@H](CC(C)C)C(=O)N[C@@H](CCC(=O)O)C(=O)N[C@@H](CCCNC(=N)N)C(=O)NCC(=O)NCC(N)=O)C(C)C` [g725] (H-HGEGTFTSDYSEYLDSK([Ahx-Palmitoyl])RAADFVAWLERGG-NH2; N-terminus assumed), for which the pEC50 on Human GIPr (setting [1]) was 5.83; on Human GlucR (setting [2]), 7.22; on Human GLP1R (setting [3]) it was 10.60.
With `CCCCCCCCCCCCCCCC(=O)NCCCCCC(=O)NCCCC[C@H](NC(=O)[C@H](CO)NC(=O)[C@H](CC(=O)O)NC(=O)[C@H](CC(C)C)NC(=O)[C@H](Cc1ccc(O)cc1)NC(=O)[C@H](CCC(=O)O)NC(=O)[C@H](CO)NC(=O)[C@H](Cc1ccc(O)cc1)NC(=O)[C@H](CC(=O)O)NC(=O)[C@H](CO)NC(=O)[C@@H](NC(=O)[C@H](Cc1ccccc1)NC(=O)[C@@H](NC(=O)CNC(=O)[C@H](CCC(=O)O)NC(=O)CNC(=O)[C@@H](N)Cc1c[nH]cn1)[C@@H](C)O)[C@@H](C)O)C(=O)N[C@@H](CCCNC(=N)N)C(=O)N[C@@H](C)C(=O)N[C@@H](CCCNC(=N)N)C(=O)N[C@@H](CC(=O)O)C(=O)N[C@@H](Cc1ccccc1)C(=O)N[C@H](C(=O)N[C@@H](CCC(=O)O)C(=O)N[C@@H](Cc1c[nH]c2ccccc12)C(=O)N[C@@H](CC(C)C)C(=O)N[C@@H](CCC(=O)O)C(=O)N[C@@H](CCCNC(=N)N)C(=O)NCC(=O)NCC(N)=O)C(C)C` [g726] (H-HGEGTFTSDYSEYLDSK([Ahx-Palmitoyl])RARDFVEWLERGG-NH2; N-terminus assumed), the figures for the pEC50 on Human GIPr (setting [1]), at Human GlucR (setting [2]) and on Human GLP1R (setting [3]) were 6.67, 7.88 and 11.10, respectively.
The matching figures for `CCCCCCCCCCCCCCCC(=O)NCCCCCC(=O)NCCCC[C@H](NC(=O)[C@H](CO)NC(=O)[C@H](CC(=O)O)NC(=O)[C@H](CC(C)C)NC(=O)[C@H](Cc1ccc(O)cc1)NC(=O)[C@H](CCC(=O)O)NC(=O)[C@H](CO)NC(=O)[C@H](Cc1ccc(O)cc1)NC(=O)[C@H](CC(=O)O)NC(=O)[C@H](CO)NC(=O)[C@@H](NC(=O)[C@H](Cc1ccccc1)NC(=O)[C@@H](NC(=O)CNC(=O)[C@H](CCC(N)=O)NC(=O)CNC(=O)[C@@H](N)Cc1c[nH]cn1)[C@@H](C)O)[C@@H](C)O)C(=O)N[C@@H](CCCNC(=N)N)C(=O)N[C@@H](C)C(=O)N[C@@H](CCCNC(=N)N)C(=O)N[C@@H](CC(=O)O)C(=O)N[C@@H](Cc1ccccc1)C(=O)N[C@H](C(=O)N[C@@H](C)C(=O)N[C@@H](Cc1c[nH]c2ccccc12)C(=O)N[C@@H](CC(C)C)C(=O)N[C@@H](CCC(=O)O)C(=O)N[C@@H](CCCNC(=N)N)C(=O)NCC(=O)NCC(=O)O)C(C)C` [g727] (H-HGQGTFTSDYSEYLDSK([Ahx-Palmitoyl])RARDFVAWLERGG-OH; N-terminus assumed): 6.75, 9.66 and 10.58.
As to `CCCCCCCCCCCCCCCC(=O)N[C@@H](CCC(=O)NCCCC[C@H](NC(=O)[C@H](CO)NC(=O)[C@H](Cc1ccc(O)cc1)NC(=O)[C@H](CC(=O)O)NC(=O)[C@H](CO)NC(=O)[C@@H](NC(=O)[C@H](Cc1ccccc1)NC(=O)[C@@H](NC(=O)CNC(=O)[C@H](CCC(N)=O)NC(=O)[C@H](CO)NC(=O)[C@@H](N)Cc1c[nH]cn1)[C@@H](C)O)[C@@H](C)O)C(=O)N[C@@H](Cc1ccc(O)cc1)C(=O)N[C@@H](CC(C)C)C(=O)N[C@@H](CC(=O)O)C(=O)N[C@@H](CO)C(=O)N[C@@H](CCC(=O)O)C(=O)N[C@@H](CCCNC(=N)N)C(=O)N[C@@H](C)C(=O)N[C@@H](CCCNC(=N)N)C(=O)N[C@@H](CC(=O)O)C(=O)N[C@@H](Cc1ccccc1)C(=O)N[C@H](C(=O)N[C@@H](C)C(=O)N[C@@H](Cc1c[nH]c2ccccc12)C(=O)N[C@@H](CC(C)C)C(=O)N[C@H](C(=O)N[C@@H](C)C(=O)NCC(=O)NCC(N)=O)C(C)C)C(C)C)C(=O)O` [g728] (H-HSQGTFTSDYSK([γGlu-Palmitoyl])YLDSERARDFVAWLVAGG-NH2; N-terminus assumed), the values for the pEC50 on Human GIPr (setting [1]), on Human GlucR (setting [2]) and on Human GLP1R (setting [3]) were 6.40, 8.61 and 9.77, respectively.
For `CCCCCCCCCCCCCCCC(=O)N[C@@H](CCC(=O)NCCCC[C@H](NC(=O)[C@H](CCCCN)NC(=O)[C@H](CO)NC(=O)[C@H](Cc1ccc(O)cc1)NC(=O)[C@H](CC(=O)O)NC(=O)[C@H](CO)NC(=O)[C@@H](NC(=O)[C@H](Cc1ccccc1)NC(=O)[C@@H](NC(=O)CNC(=O)[C@H](CCC(N)=O)NC(=O)[C@H](CO)NC(=O)[C@@H](N)Cc1c[nH]cn1)[C@@H](C)O)[C@@H](C)O)C(=O)N[C@@H](CC(C)C)C(=O)N[C@@H](CC(=O)O)C(=O)N[C@@H](CO)C(=O)N[C@@H](CCC(=O)O)C(=O)N[C@@H](CCCNC(=N)N)C(=O)N[C@@H](C)C(=O)N[C@@H](CCC(N)=O)C(=O)N[C@@H](CC(=O)O)C(=O)N[C@@H](Cc1ccccc1)C(=O)N[C@H](C(=O)N[C@@H](CCC(N)=O)C(=O)N[C@@H](Cc1c[nH]c2ccccc12)C(=O)N[C@@H](CC(C)C)C(=O)N[C@H](C(=O)N[C@@H](C)C(=O)NCC(=O)NCC(N)=O)C(C)C)C(C)C)C(=O)O` [g729] (H-HSQGTFTSDYSKK([γGlu-Palmitoyl])LDSERAQDFVQWLVAGG-NH2), the pEC50 at Human GIPr (hGIPR EC50, assay medium) is 6.68; at Human GlucR (hGlucR EC50, assay medium) it was 10.50; on Human GLP1R (hGLP1R EC50, assay medium), 10.14.
As to `CCCCCCCCCCCCCCCC(=O)N[C@@H](CCC(=O)NCCCC[C@H](NC(=O)[C@H](Cc1ccc(O)cc1)NC(=O)[C@H](CCC(=O)O)NC(=O)[C@H](CO)NC(=O)[C@H](Cc1ccc(O)cc1)NC(=O)[C@H](CC(=O)O)NC(=O)[C@H](CO)NC(=O)[C@@H](NC(=O)[C@H](Cc1ccccc1)NC(=O)[C@@H](NC(=O)CNC(=O)[C@H](CCC(N)=O)NC(=O)[C@H](CO)NC(=O)[C@@H](N)Cc1c[nH]cn1)[C@@H](C)O)[C@@H](C)O)C(=O)N[C@@H](CC(=O)O)C(=O)N[C@@H](CO)C(=O)N[C@@H](CCCNC(=N)N)C(=O)N[C@@H](CCCNC(=N)N)C(=O)N[C@@H](C)C(=O)N[C@@H](CCC(N)=O)C(=O)N[C@@H](CC(=O)O)C(=O)N[C@@H](Cc1ccccc1)C(=O)N[C@H](C(=O)N[C@@H](CCC(N)=O)C(=O)N[C@@H](Cc1c[nH]c2ccccc12)C(=O)N[C@@H](CC(C)C)C(=O)N[C@H](C(=O)N[C@@H](C)C(=O)NCC(=O)NCC(N)=O)C(C)C)C(C)C)C(=O)O` [g731] (H-HSQGTFTSDYSEYK([γGlu-Palmitoyl])DSRRAQDFVQWLVAGG-NH2; N-terminus assumed), the pEC50 is 7.39 on Human GIPr (setting [1]), 10.56 on Human GlucR (setting [2]) and 10.37 on Human GLP1R (setting [3]).
The matching figures for `CCCCCCCCCCCCCCCC(=O)N[C@@H](CCC(=O)NCCCC[C@H](NC(=O)[C@H](Cc1ccc(O)cc1)NC(=O)[C@H](CCCCN)NC(=O)[C@H](CO)NC(=O)[C@H](Cc1ccc(O)cc1)NC(=O)[C@H](CC(=O)O)NC(=O)[C@H](CO)NC(=O)[C@@H](NC(=O)[C@H](Cc1ccccc1)NC(=O)[C@@H](NC(=O)CNC(=O)[C@H](CCC(N)=O)NC(=O)CNC(=O)[C@@H](N)Cc1c[nH]cn1)[C@@H](C)O)[C@@H](C)O)C(=O)N[C@@H](CC(=O)O)C(=O)N[C@@H](CO)C(=O)N[C@@H](CCC(=O)O)C(=O)N[C@@H](CCCNC(=N)N)C(=O)N[C@@H](C)C(=O)N[C@@H](CCCNC(=N)N)C(=O)N[C@@H](CC(=O)O)C(=O)N[C@@H](Cc1ccccc1)C(=O)N[C@H](C(=O)N[C@@H](C)C(=O)N[C@@H](Cc1c[nH]c2ccccc12)C(=O)N[C@@H](CC(C)C)C(=O)N[C@H](C(=O)N[C@@H](C)C(=O)NCC(=O)NCC(N)=O)C(C)C)C(C)C)C(=O)O` [g732] (H-HGQGTFTSDYSKYK([γGlu-Palmitoyl])DSERARDFVAWLVAGG-NH2; N-terminus assumed): 7.53, 10.40 and 10.63.
